From ChEMBL document CHEMBL1125711, “Flavins as potential antimalarials. 2. 3-Methyl-10-(substituted-phenyl) flavins” (J Med Chem, 1991)

Each compound was assayed on Mus musculus (assay: Antimalarial activity was evaluated against Plasmodium vinckei V52 after intraperitoneal administration at dose 15 mg/kg). Conditions: not given.
Type: functional

Row | Structure (SMILES) | Cured
1 | Cn1c(=O)nc2n(-c3cc(C(F)(F)F)ccc3Cl)c3ccccc3nc-2c1=O | 0%
2 | Cn1c(=O)nc2n(-c3ccc(Cl)c(C(F)(F)F)c3)c3ccccc3nc-2c1=O | 0%

These compounds were tested on Mus musculus (assay: Increase in mean survival days was determined in mice after ip administration of 20 mg/kg). Conditions: route intraperitoneal.
Type: functional

Row | Structure (SMILES) | Mean survival days
3 | CSc1cccc(-n2c3nc(=O)n(C)c(=O)c-3nc3ccccc32)c1 | 0 days
4 | CCc1cccc(-n2c3nc(=O)n(C)c(=O)c-3nc3ccccc32)c1 | 0 days
5 | CSc1ccc(-n2c3nc(=O)n(C)c(=O)c-3nc3ccccc32)cc1 | 0.5 days
6 | Cn1c(=O)nc2n(-c3ccc(Cl)cc3F)c3ccccc3nc-2c1=O | 4 days
7 | Cn1c(=O)nc2n(-c3cc(C(F)(F)F)ccc3Cl)c3ccccc3nc-2c1=O | 0 days
8 | Cn1c(=O)nc2n(-c3ccc(Cl)c(C(F)(F)F)c3)c3ccccc3nc-2c1=O | 0 days

Each compound was assayed on Mus musculus (assay: Increase in mean survival days was determined in mice after ip administration of 30 mg/kg). Conditions: route intraperitoneal.
Type: functional

Row | Structure (SMILES) | Mean survival days
9 | CSc1cccc(-n2c3nc(=O)n(C)c(=O)c-3nc3ccccc32)c1 | 0 days
10 | CCc1cccc(-n2c3nc(=O)n(C)c(=O)c-3nc3ccccc32)c1 | 0 days
11 | CSc1ccc(-n2c3nc(=O)n(C)c(=O)c-3nc3ccccc32)cc1 | 0.5 days
12 | Cn1c(=O)nc2n(-c3ccc(Cl)c(C(F)(F)F)c3)c3ccccc3nc-2c1=O | 0 days

The compounds below were run on Mus musculus (assay: Antimalarial activity was evaluated against Plasmodium vinckei V52 after intraperitoneal administration at dose 70 mg/kg). Conditions: not given.
Type: functional

Row | Structure (SMILES) | Cured
13 | CCc1cccc(-n2c3nc(=O)n(C)c(=O)c-3nc3ccccc32)c1 | 0%

These compounds were tested on Mus musculus (assay: Antimalarial activity was evaluated against Plasmodium vinckei V52 after intraperitoneal administration at dose 25 mg/kg). Conditions: not given.
Type: functional

Row | Structure (SMILES) | Cured
14 | Cn1c(=O)nc2n(-c3cc(C(F)(F)F)ccc3Cl)c3ccccc3nc-2c1=O | 0%

The compounds below were run on Mus musculus (assay: Increase in mean survival days was determined in mice after ip administration of 10 mg/kg). Conditions: route intraperitoneal.
Type: functional

Row | Structure (SMILES) | Mean survival days
15 | CSc1cccc(-n2c3nc(=O)n(C)c(=O)c-3nc3ccccc32)c1 | 0.2 days
16 | CSc1ccc(-n2c3nc(=O)n(C)c(=O)c-3nc3ccccc32)cc1 | 0.2 days
17 | Cn1c(=O)nc2n(-c3ccc(Cl)cc3F)c3ccccc3nc-2c1=O | 1 days
18 | Cn1c(=O)nc2n(-c3cc(C(F)(F)F)ccc3Cl)c3ccccc3nc-2c1=O | 0 days
19 | Cn1c(=O)nc2n(-c3ccc(Cl)c(C(F)(F)F)c3)c3ccccc3nc-2c1=O | 0 days

The compounds below were run on Plasmodium vinckei vinckei (assay: Antimalarial activity against Plasmodium vinckei V52 on 10 mg/kg intraperitoneal dose). Conditions: not given.
Type: functional

Row | Structure (SMILES) | Cured
20 | CSc1cccc(-n2c3nc(=O)n(C)c(=O)c-3nc3ccccc32)c1 | 0%
21 | CCc1cccc(-n2c3nc(=O)n(C)c(=O)c-3nc3ccccc32)c1 | 0%
22 | CSc1ccc(-n2c3nc(=O)n(C)c(=O)c-3nc3ccccc32)cc1 | 0%
23 | Cn1c(=O)nc2n(-c3ccc(Cl)cc3F)c3ccccc3nc-2c1=O | 0%
24 | Cn1c(=O)nc2n(-c3cc(C(F)(F)F)ccc3Cl)c3ccccc3nc-2c1=O | 0%
25 | Cn1c(=O)nc2n(-c3ccc(Cl)c(C(F)(F)F)c3)c3ccccc3nc-2c1=O | 0%

What follows are compounds tested on Plasmodium vinckei vinckei (assay: Antimalarial activity against Plasmodium vinckei V52 on 30 mg/kg intraperitoneal dose). Conditions: not given.
Type: functional

Row | Structure (SMILES) | Cured
26 | CSc1cccc(-n2c3nc(=O)n(C)c(=O)c-3nc3ccccc32)c1 | 0%
27 | CCc1cccc(-n2c3nc(=O)n(C)c(=O)c-3nc3ccccc32)c1 | 0%
28 | CSc1ccc(-n2c3nc(=O)n(C)c(=O)c-3nc3ccccc32)cc1 | 0%
29 | Cn1c(=O)nc2n(-c3ccc(Cl)cc3F)c3ccccc3nc-2c1=O | 0%
30 | Cn1c(=O)nc2n(-c3cc(C(F)(F)F)ccc3Cl)c3ccccc3nc-2c1=O | 0%
31 | Cn1c(=O)nc2n(-c3ccc(Cl)c(C(F)(F)F)c3)c3ccccc3nc-2c1=O | 0%

The compounds below were run on Mus musculus (assay: Increase in mean survival days was determined in mice after ip administration of 15 mg/kg). Conditions: route intraperitoneal.
Type: functional

Row | Structure (SMILES) | Mean survival days
32 | CCc1cccc(-n2c3nc(=O)n(C)c(=O)c-3nc3ccccc32)c1 | 0 days
33 | Cn1c(=O)nc2n(-c3cc(C(F)(F)F)ccc3Cl)c3ccccc3nc-2c1=O | 0.2 days
34 | Cn1c(=O)nc2n(-c3ccc(Cl)c(C(F)(F)F)c3)c3ccccc3nc-2c1=O | 0 days

What follows are compounds tested on Plasmodium vinckei vinckei (assay: Antimalarial activity against Plasmodium vinckei V52 after 20 mg/kg intraperitoneal dose). Conditions: not given.
Type: functional

Row | Structure (SMILES) | Cured
35 | CSc1cccc(-n2c3nc(=O)n(C)c(=O)c-3nc3ccccc32)c1 | 0%
36 | CCc1cccc(-n2c3nc(=O)n(C)c(=O)c-3nc3ccccc32)c1 | 0%
37 | CSc1ccc(-n2c3nc(=O)n(C)c(=O)c-3nc3ccccc32)cc1 | 0%
38 | Cn1c(=O)nc2n(-c3ccc(Cl)cc3F)c3ccccc3nc-2c1=O | 0%
39 | Cn1c(=O)nc2n(-c3cc(C(F)(F)F)ccc3Cl)c3ccccc3nc-2c1=O | 0%
40 | Cn1c(=O)nc2n(-c3ccc(Cl)c(C(F)(F)F)c3)c3ccccc3nc-2c1=O | 0%

What follows are compounds tested on Plasmodium vinckei vinckei (assay: Increase in mean survival days of Plasmodium inoculated mice (Mus musculus) after 70 mg/Kg intraperitoneal dose). Conditions: not given.
Type: functional

Row | Structure (SMILES) | Mean survival days
41 | CSc1cccc(-n2c3nc(=O)n(C)c(=O)c-3nc3ccccc32)c1 | 0 days
42 | CCc1cccc(-n2c3nc(=O)n(C)c(=O)c-3nc3ccccc32)c1 | 0.3 days
43 | CSc1ccc(-n2c3nc(=O)n(C)c(=O)c-3nc3ccccc32)cc1 | 0 days
44 | Cn1c(=O)nc2n(-c3ccc(Cl)c(C(F)(F)F)c3)c3ccccc3nc-2c1=O | 0.2 days

Each compound was assayed on Mus musculus (assay: Increase in mean survival days was determined in mice after ip administration of 25 mg/kg). Conditions: route intraperitoneal.
Type: functional

Row | Structure (SMILES) | Mean survival days
45 | CCc1cccc(-n2c3nc(=O)n(C)c(=O)c-3nc3ccccc32)c1 | 0 days

These compounds were tested on Plasmodium vinckei vinckei (assay: Antimalarial activity against Plasmodium vinckei V52 on 70 mg/kg intraperitoneal dose). Conditions: not given.
Type: functional

Row | Structure (SMILES) | Cured
46 | CSc1cccc(-n2c3nc(=O)n(C)c(=O)c-3nc3ccccc32)c1 | 0%
47 | CSc1ccc(-n2c3nc(=O)n(C)c(=O)c-3nc3ccccc32)cc1 | 0%
48 | Cn1c(=O)nc2n(-c3ccc(Cl)c(C(F)(F)F)c3)c3ccccc3nc-2c1=O | 0%

These compounds were tested on Mus musculus (assay: Increase in mean survival days was determined in mice after ip administration of 30 mg/kg; toxic). Conditions: route intraperitoneal.
Type: functional

Row | Structure (SMILES) | Mean survival days
49 | Cn1c(=O)nc2n(-c3ccc(Cl)cc3F)c3ccccc3nc-2c1=O | -2 days
50 | Cn1c(=O)nc2n(-c3cc(C(F)(F)F)ccc3Cl)c3ccccc3nc-2c1=O | -0.4 days

What follows are compounds tested on Mus musculus (assay: Antimalarial activity was evaluated against Plasmodium vinckei vinckei V52 after intraperitoneal administration at dose 25 mg/kg). Conditions: not given.
Type: functional

Row | Structure (SMILES) | Cured
51 | CCc1cccc(-n2c3nc(=O)n(C)c(=O)c-3nc3ccccc32)c1 | 0%

Each compound was assayed on Mus musculus (assay: Increase in mean survival days was determined in mice after ip administration of 25 mg/kg; toxic). Conditions: route intraperitoneal.
Type: functional

Row | Structure (SMILES) | Mean survival days
52 | Cn1c(=O)nc2n(-c3cc(C(F)(F)F)ccc3Cl)c3ccccc3nc-2c1=O | 0 days
